According to ChEMBL document CHEMBL4616724, “Topoisomerase Inhibitors Addressing Fluoroquinolone Resistance in Gram-Negative Bacteria” (J Med Chem, 2020):
≈ marks a conversion by molar mass, not a printed value.

Assays:
Escherichia coli [1] = assay: Antibacterial activity against wild type Escherichia coli ATCC 25922 at pH 7.4 by CLSI-based broth microdilution assay; assay type: functional
[2] = Solubility of the compound in pH 7 PBS incubated for 24 hrs under gently shaking condition by UPLC/UV/CLND/MS analysis; assay type: physicochemical; details: PBS, pH 7
[3] = n-Octanol-PBS buffer partition coefficient, log D of the compound at pH 7.4 after overnight incubation by LC/UV/qTOF analysis; assay type: physicochemical
DNA gyrase = DNA gyrase (Escherichia coli, UniProt P0AES4+P0AES6); assay: Inhibition of recombinant full-length C-terminal His6-tagged Escherichia coli DNA gyrase AB supercoiling activity using relaxed DNA as substrate preincubated for 30 mins followed by substrate addition and measured after 2 hrs in presence of ATP by size exclusion HPLC analysis; assay type: protein-complex assay
Pseudomonas aeruginosa [4] = assay: Antibacterial activity against Pseudomonas aeruginosa K1542/K767 harboring MexB/MexXY deletion mutant by CLSI-based broth microdilution assay; assay type: functional
Pseudomonas aeruginosa [5] = assay: Antibacterial activity against Pseudomonas aeruginosa NB52023 harboring gyrA T83I mutant/ParC S87L mutant by CLSI-based broth microdilution assay; assay type: functional
Escherichia coli [6] = assay: Antibacterial activity against Escherichia coli BW25113/JW0451-2 harboring AcrB deletion mutant by CLSI-based broth microdilution assay; assay type: functional
[7] = Protein binding in CD1 mouse plasma at 10 uM incubated for 4 hrs under shaking condition by LC-MS/MS analysis; assay type: ADME, cell-free; details: read-out: PPB (converted)
[8] = Protein binding in Sprague-Dawley rat plasma at 10 uM incubated for 4 hrs under shaking condition by LC-MS/MS analysis; assay type: ADME, cell-free; details: read-out: PPB (converted)
[9] = Protein binding in pooled human plasma at 10 uM incubated for 4 hrs under shaking condition by LC-MS/MS analysis; assay type: ADME, cell-free; details: read-out: PPB (converted)
[10] = Intrinsic clearance in rat liver microsomes at 1 uM in presence of NADPH and measured up to 30 mins by LC-MS/MS analysis; assay type: ADME, Microsome; details: read-out: CLH
[11] = Intrinsic clearance in human liver microsomes at 1 uM in presence of NADPH and measured up to 30 mins by LC-MS/MS analysis; assay type: ADME, Microsome; details: read-out: CLH
[12] = Dissociation constant, pKa of the compound by UV metric method; assay type: physicochemical
[13] = Intrinsic clearance in mouse liver microsomes at 1 uM in presence of NADPH and measured up to 30 mins by LC-MS/MS analysis; assay type: ADME, Microsome; details: read-out: CLH
[14] = biological target: Voltage-gated inwardly rectifying potassium channel KCNH2 (Homo sapiens, UniProt Q12809); assay: Inhibition of human ERG expressed in CHOK1 cells measured for 10 mins by QPatch automated patch-clamp assay; assay type: cell-based, CHO-K1
HepG2 = assay: Cytotoxicity against human HepG2 cells assessed as reduction in cell viability after 72 hrs by Cell-titer Glo assay; assay type: cell-based; details: HepG2, 72 h
K562 = assay: Cytotoxicity against human K562 cells assessed as reduction in cell viability after 72 hrs by Cell-titer Glo assay; assay type: cell-based; details: K562, 72 h
[15] = Photoirradiation factor, ratio of IC50 for BALB/c mouse 3T3 cells under dark condition to IC50 for BALB/c mouse 3T3 cells under 5 J/cm2 sunlight irradiation by neutral red uptake assay; assay type: ADME, cell-based, NIH3T3; details: BALB/c 3T3 cells, read-out: Ratio IC50
NIH3T3 = assay: Phototoxicity against BALB/c mouse 3T3 cells assessed as reduction in cell viability preincubated for 1 hr followed by 5 J/cm2 UVA sunlight irradiation for 50 mins and subsequent replacement of medium and measured after 24 hrs by neutral red uptake assay; assay type: cell-based; details: NIH3T3, light or radiation study
[16] = Clearance in rat at 5 mg/kg, iv or 10 mg/kg, po measured up to 24 hrs by LC-MS/MS analysis; assay type: ADME, organism-based; details: in vivo
[17] = Volume of distribution at steady state in rat at 5 mg/kg, iv or 10 mg/kg, po measured up to 24 hrs by LC-MS/MS analysis; assay type: ADME, organism-based; details: in vivo, read-out: Vdss
[18] = Dose normalized AUC in rat at 10 mg/kg, po measured up to 24 hrs by LC-MS/MS analysis; assay type: ADME, organism-based; details: in vivo
[19] = Dose normalized Cmax in rat at 10 mg/kg, po measured up to 24 hrs by LC-MS/MS analysis; assay type: ADME, organism-based; details: in vivo
[20] = Tmax in rat at 10 mg/kg, po measured up to 24 hrs by LC-MS/MS analysis; assay type: ADME, organism-based; details: in vivo
[21] = Oral bioavailability in rat at 10 mg/kg measured up to 24 hrs by LC-MS/MS analysis; assay type: ADME, organism-based; details: in vivo
[22] = Volume of distribution at steady state in mouse at 5 mg/kg, iv or po measured up to 24 hrs by LC-MS/MS analysis; assay type: ADME, organism-based; details: in vivo, read-out: Vdss
[23] = Terminal half life in mouse at 5 mg/kg, iv measured up to 24 hrs by LC-MS/MS analysis; assay type: ADME, organism-based; details: in vivo, read-out: beta t1/2 (converted)
[24] = Tmax in mouse at 5 mg/kg, po measured up to 24 hrs by LC-MS/MS analysis; assay type: ADME, organism-based; details: in vivo
[25] = Oral bioavailability in mouse at 5 mg/kg measured up to 24 hrs by LC-MS/MS analysis; assay type: ADME, organism-based; details: in vivo
Escherichia coli [26] = assay: Antibacterial activity against Escherichia coli ATCC 25922 infected in mouse model of neutropenic thigh infection compound administered subcutaneously 2 hrs post infection and measured after 24 hrs by serial dilution method; assay type: functional
Escherichia coli [27] = assay: Bacteriostatic activity against Escherichia coli ATCC 25922 infected in mouse model of neutropenic thigh infection assessed as static dose compound administered subcutaneously 2 hrs post infection and measured after 24 hrs by serial dilution method; assay type: functional
Citrobacter = assay: Antibacterial activity against Citrobacter clinical isolates by CLSI-based broth microdilution assay; assay type: functional
Klebsiella oxytoca = assay: Antibacterial activity against Klebsiella oxytoca clinical isolates by CLSI-based broth microdilution assay; assay type: functional
Morganella morganii = assay: Antibacterial activity against Morganella morganii clinical isolates by CLSI-based broth microdilution assay; assay type: functional
Proteus mirabilis = assay: Antibacterial activity against Proteus mirabilis clinical isolates by CLSI-based broth microdilution assay; assay type: functional
Serratia marcescens = assay: Antibacterial activity against Serratia marcescens clinical isolates by CLSI-based broth microdilution assay; assay type: functional
Escherichia coli [28] = assay: Antibacterial activity against Escherichia coli clinical isolates by CLSI-based broth microdilution assay; assay type: functional
Klebsiella pneumoniae = assay: Antibacterial activity against Klebsiella pneumoniae clinical isolates by CLSI-based broth microdilution assay; assay type: functional
Pseudomonas aeruginosa [29] = assay: Antibacterial activity against Pseudomonas aeruginosa clinical isolates by CLSI-based broth microdilution assay; assay type: functional

Sequence of Voltage-gated inwardly rectifying potassium channel KCNH2 (Q12809 whole entry): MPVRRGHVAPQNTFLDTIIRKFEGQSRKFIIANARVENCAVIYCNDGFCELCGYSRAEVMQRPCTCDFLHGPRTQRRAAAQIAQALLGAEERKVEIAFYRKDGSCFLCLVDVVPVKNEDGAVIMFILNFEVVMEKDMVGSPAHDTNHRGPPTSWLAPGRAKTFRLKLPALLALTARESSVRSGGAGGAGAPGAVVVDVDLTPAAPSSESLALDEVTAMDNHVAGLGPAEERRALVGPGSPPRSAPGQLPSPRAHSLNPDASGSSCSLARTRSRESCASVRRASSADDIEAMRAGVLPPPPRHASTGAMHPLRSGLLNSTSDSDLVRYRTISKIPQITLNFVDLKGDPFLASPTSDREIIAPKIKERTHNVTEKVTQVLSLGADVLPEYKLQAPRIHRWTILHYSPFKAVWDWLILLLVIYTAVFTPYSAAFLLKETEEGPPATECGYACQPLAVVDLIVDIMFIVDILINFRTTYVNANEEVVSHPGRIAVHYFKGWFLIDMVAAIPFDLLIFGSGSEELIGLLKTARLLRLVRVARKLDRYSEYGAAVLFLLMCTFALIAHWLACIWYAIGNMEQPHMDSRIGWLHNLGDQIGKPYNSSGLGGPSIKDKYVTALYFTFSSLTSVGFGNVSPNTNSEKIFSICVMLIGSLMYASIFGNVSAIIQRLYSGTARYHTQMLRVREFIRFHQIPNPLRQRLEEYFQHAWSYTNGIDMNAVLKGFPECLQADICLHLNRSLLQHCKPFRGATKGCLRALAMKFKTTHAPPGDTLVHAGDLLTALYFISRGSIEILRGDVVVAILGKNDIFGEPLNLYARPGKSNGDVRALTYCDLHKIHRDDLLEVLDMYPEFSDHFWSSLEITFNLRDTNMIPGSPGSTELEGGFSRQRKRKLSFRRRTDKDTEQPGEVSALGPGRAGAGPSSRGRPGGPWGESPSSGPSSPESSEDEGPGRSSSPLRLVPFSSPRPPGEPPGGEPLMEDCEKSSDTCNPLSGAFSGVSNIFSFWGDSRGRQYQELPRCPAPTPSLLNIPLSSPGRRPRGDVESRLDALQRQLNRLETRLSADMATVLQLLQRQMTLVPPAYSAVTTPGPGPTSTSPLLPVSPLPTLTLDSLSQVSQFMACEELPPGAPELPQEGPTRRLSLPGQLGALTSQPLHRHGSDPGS

Cc1c(N2CC3CC3(N)C2)c(F)cc2c(CN)c(F)c(=O)n(C3CC3)c12 (stereo not given)
MIC (Escherichia coli [1]): 0.06 µg/mL (≈ 0.166 µM)
solubility at 24 h [2]: 1280 µg/mL (≈ 3540 µM)
logD [3]: 1.1
IC50 (DNA gyrase): 1.25 µM
MIC (Pseudomonas aeruginosa [4]): 0.25 µg/mL (≈ 0.694 µM)
MIC (Pseudomonas aeruginosa [5]): 0.5 µg/mL (≈ 1.39 µM)
MIC (Escherichia coli [6]): ≤ 0.03 µg/mL
fraction unbound at 4 h, 10 µM [7]: 0.68
fraction unbound at 4 h, 10 µM [8]: 0.42
fraction unbound at 4 h, 10 µM [9]: 0.65
microsomal CLint at 1 µM [10]: 117 µL/min/mg
microsomal CLint at 1 µM [11]: 18 µL/min/mg
pKa [12]: 7.6 to 8
microsomal CLint at 1 µM [13]: 40 µL/min/mg
IC50 [14]: 114 µM
EC50 (HepG2): 82 µM
EC50 (K562): 40 µM
selectivity ratio [15]: 621
IC50 (NIH3T3): 1.61 µM
clearance [16]: 71 mL/min/kg
Vd [17]: 24.1 L/kg
AUC/dose [18]: 0.1 µM·h/mg/kg
Cmax/dose [19]: 0.01 µM/mg/kg
Tmax [20]: 1.3 h
bioavailability [21]: 15%
Vd [22]: 5.1 L/kg
half-life [23]: 1.7 h
Tmax [24]: 0.5 h
bioavailability [25]: 36%
MIC (Escherichia coli [26]): 0.06 µg/mL (≈ 0.166 µM)
Activity (Escherichia coli [27]): 45.5 mg/kg/day
MIC (Citrobacter): 0.06 to 32 µg/mL (≈ 0.166 to 88.8 µM)
MIC50 (Citrobacter): 1 µg/mL (≈ 2.77 µM)
MIC90 (Citrobacter): 8 µg/mL (≈ 22.2 µM)
MIC (Klebsiella oxytoca): 0.06 to 32 µg/mL (≈ 0.166 to 88.8 µM)
MIC50 (Klebsiella oxytoca): 1 µg/mL (≈ 2.77 µM)
MIC90 (Klebsiella oxytoca): 8 µg/mL (≈ 22.2 µM)
MIC (Morganella morganii): 0.06 to 32 µg/mL (≈ 0.166 to 88.8 µM)
MIC50 (Morganella morganii): 1 µg/mL (≈ 2.77 µM)
MIC90 (Morganella morganii): 8 µg/mL (≈ 22.2 µM)
MIC (Proteus mirabilis): 0.06 to 32 µg/mL (≈ 0.166 to 88.8 µM)
MIC50 (Proteus mirabilis): 1 µg/mL (≈ 2.77 µM)
MIC90 (Proteus mirabilis): 8 µg/mL (≈ 22.2 µM)
MIC (Serratia marcescens): 0.06 to 32 µg/mL (≈ 0.166 to 88.8 µM)
MIC50 (Serratia marcescens): 1 µg/mL (≈ 2.77 µM)
MIC90 (Serratia marcescens): 8 µg/mL (≈ 22.2 µM)
MIC (Escherichia coli [28]): 0.06 to 8 µg/mL (≈ 0.166 to 22.2 µM)
MIC50 (Escherichia coli [28]): 1 µg/mL (≈ 2.77 µM)
MIC90 (Escherichia coli [28]): 2 µg/mL (≈ 5.55 µM)
MIC (Klebsiella pneumoniae): 0.25 to 32 µg/mL (≈ 0.694 to 88.8 µM)
MIC50 (Klebsiella pneumoniae): 4 µg/mL (≈ 11.1 µM)
MIC90 (Klebsiella pneumoniae): 16 µg/mL (≈ 44.4 µM)
MIC (Pseudomonas aeruginosa [29]): 1 to 32 µg/mL (≈ 2.77 to 88.8 µM)
MIC50 (Pseudomonas aeruginosa [29]): 8 µg/mL (≈ 22.2 µM)
MIC90 (Pseudomonas aeruginosa [29]): 32 µg/mL (≈ 88.8 µM)
